# Experimental data taken from patent US7151105B2, “Inhibitors of Hepatitis C virus RNA-dependent RNA polymerase, and compositions and treatments using the same” (Agouron Pharmaceuticals, Inc., priority 2004, dated 2006).
# Counter-ions that a name gives are not always drawn.
# Target: T1, Recombinant HCV polymerase (Hepatitis C virus genotype 1b, UniProt P26663)
# T1 construct: Recombinant HCV polymerase was tested for its ability to perform primer/template-directed transcription
# Assay: biochemical
# Settings: inhibition of polymerase-directed transcription; 30 min at 30° C; 30 nM enzyme; cpm data in triplicate
# Method in brief: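 Primer/template-directed RNA synthesis by 2.5 pmol HCV polymerase on poly(rC)300/biotin-dG12 with 1 μM GTP plus α-32P-GTP, in pH 7.2 Tris buffer with 10 mM MgCl2, for 30 min at 30 °C. Products were filter-captured and counted, with 1% DMSO final. IC50 was fitted from triplicate cpm; percent inhibition was reported where IC50 was impractical.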
# T1 sequence (P26663 2420-3010): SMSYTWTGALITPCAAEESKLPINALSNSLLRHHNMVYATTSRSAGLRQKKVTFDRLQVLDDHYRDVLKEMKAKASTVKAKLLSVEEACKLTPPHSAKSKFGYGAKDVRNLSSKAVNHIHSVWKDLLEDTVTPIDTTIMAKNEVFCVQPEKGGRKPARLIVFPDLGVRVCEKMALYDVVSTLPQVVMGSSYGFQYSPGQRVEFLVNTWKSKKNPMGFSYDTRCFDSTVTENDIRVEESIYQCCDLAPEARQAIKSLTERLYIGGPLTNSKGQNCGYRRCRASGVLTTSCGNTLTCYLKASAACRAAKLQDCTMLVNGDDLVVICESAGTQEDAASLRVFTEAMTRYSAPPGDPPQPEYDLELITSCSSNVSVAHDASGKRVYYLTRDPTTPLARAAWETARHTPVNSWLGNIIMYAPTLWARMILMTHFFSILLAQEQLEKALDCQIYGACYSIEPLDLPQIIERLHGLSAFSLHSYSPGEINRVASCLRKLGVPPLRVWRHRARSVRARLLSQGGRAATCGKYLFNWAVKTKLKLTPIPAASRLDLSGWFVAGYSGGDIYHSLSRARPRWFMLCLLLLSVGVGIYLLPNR
row,SMILES,IC50 [µM]
1,C[C@@H](NC(=O)OC(C)(C)C)c1ccc(CCC2(C3CCCC3)CC(=O)CC(=O)O2)cc1 (some centres unmarked) [A(90)],43
2,"COC(=O)c1ccc(CCC2(C3CCCC3)CC(O)=C(Cc3nc4nc(C)cc(C)n4n3)C(=O)O2)cc1F (centres unmarked) [B(8), Methyl 4-(2-{2-cyclopentyl-5-[(5,7-dimethyl[1,2,4]triazolo[1,5-a]pyrimidin-2-yl)methyl]-4-hydroxy-6oxo-3,6-dihydro-2H-pyran-2-yl}ethyl)-2-fluorobenzoate]",0.029
3,"CN(C)c1c(CC2=C(O)CC(CCc3ccc(C(C)(C)C#N)c(F)c3)(C3CCCC3)OC2=O)c(C(F)F)nn1C (centres unmarked) [Example B(51), 2-{4-[2-(2-Cyclopentyl-5-{[3-(difluoromethyl)-5-(dimethylamino)-1-methyl-1H-pyrazol-4-yl]methyl}-4-hydroxy-6-oxo-3,6-dihydro-2H-pyran-2-yl)ethyl]-2-fluorophenyl}-2-methylpropanenitrile]",0.024
4,"Cc1nc(CC2=C(O)CC(CCc3ccc(C(C)(C)C#N)c(Cl)c3)(C3CCCC3)OC2=O)n(C)n1 (centres unmarked) [B(22), 2-[2-Chloro-4-(2-{2-cyclopentyl-5-[(1,3-dimethyl-1H-1,2,4-triazol-5-yl)methyl]-4-hydroxy-6-oxo-3,6-dihydro-2H-pyran-2-yl}ethyl)phenyl]-2-methylpropanenitrile]",0.042
5,"Cc1cc(C)n2nc(CC3=C(O)CC(CCn4cc(Br)ccc4=O)(C4CCCC4)OC3=O)nc2n1 (centres unmarked) [B(30), 5-Bromo-1-(2-{2-cyclopentyl-5-[(5,7-dimethyl[1,2,4]triazolo[1,5-a]pyrimidin-2-yl)methyl]-4-hydroxy-6-oxo-3,6-dihydro-2H-pyran-2-yl}ethyl)pyridin-2(1H)-one]",1.2
6,"CCc1cc(CCC2(C3CCCC3)CC(O)=C(Cc3nc4nc(C)cc(C)n4n3)C(=O)O2)ccc1CN (centres unmarked) [A(125), 6-{2-[4-(Aminomethyl)-3-ethylphenyl]ethyl}-6-cyclopentyl-3-[(5,7-dimethyl[1,2,4]triazolo[1,5-a]pyrimidin-2-yl)methyl]-4-hydroxy-5,6-dihydro-2H-pyran-2-one hydrochloride]",0.01
7,O=C1CC(=O)OC(CCc2ccc(C(=O)O)c(Cl)c2)(C2CCCC2)C1 (centres unmarked) [B(10)],30
8,"Cc1cc(C)n2nc(CC3=C(O)CC(CCc4ccc([C@@H](C)NC(=O)OC(C)(C)C)cc4)(C4CCCC4)OC3=O)nc2n1 (stereo partly drawn) [A(91), tert-Butyl(1R)-1-[4-(2-{2-cyclopentyl-5-[(5,7-dimethyl[1,2,4]triazolo[1,5-a]pyrimidin-2-yl)methyl]-4-hydroxy-6-oxo-3,6-dihydro-2H-pyran-2-yl}ethyl)phenyl]ethylcarbamate]",0.16
9,"COC(=O)c1ccc(CCC2(C3CCCC3)CC(=O)CC(=O)O2)cc1F (centres unmarked) [B(5), Methyl 4-[2-(2-cyclopentyl-4,6-dioxotetrahydro-2H-pyran-2-yl)ethyl]-2-fluorobenzoate]",22
10,"Cc1cc(C)n2nc(CC3=C(O)CC(CCc4ccc([C@@H](C)NS(=O)(=O)CC(F)(F)F)cc4)(C4CCCC4)OC3=O)nc2n1 (stereo partly drawn) [A(82), N-{(1R)-1-[4(2-{2-cyclopentyl-5-[(5,7-dimethyl[1,2,4]triazolo[1,5-a]pyrimidin-2-yl)methyl]4-hydroxy-oxo-3,6dihydro-2H-pyran-2-yl}ethyl)phenyl]ethyl}-2,2,2-trifluoroethanesulfonamide]",0.065
11,"CCc1ccc(OC)c(CCC2(C3CCCC3)CC(=O)CC(=O)O2)n1 (centres unmarked) [A(5), 6-Cyclopentyl-6-[2-(6-ethyl-3-methoxypyridin-2-yl)ethyl]dihydro-2H-pyran-2,4(3H)-dione]",8.6

# These reach a lower IC50. Values come first.
row,IC50 [µM],SMILES
1,0.005,"CCc1cc(CCC2(C3CCCC3)CC(O)=C(Cc3nc4nc(C)cc(C)n4n3)C(=O)O2)ccc1CN1CCOCC1 (single isomer, unassigned) [A(156), 6-Cyclopentyl-3-[(5,7-dimethyl[1,2,4]triazolo[1,5-a]pyrimidin-2-yl)methyl]-6-{2-[3-ethyl-4-(morpholin-4-ylmethyl)phenyl]ethyl}-4-hydroxy-5,6-dihydro-2H-pyran-2-one]"
2,0.008,"CCc1cc(CCC2(C3CCCC3)CC(O)=C(Cc3nc4nc(C)cc(C)n4n3)C(=O)O2)ccc1OCCNC (centres unmarked) [A(72), 6-Cyclopentyl-3-[(5,7-dimethyl[1,2,4]triazolo[1,5-a]pyrimidin-2-yl)methyl]-6-(2-{3-ethyl-4-[2-(methylamino)ethoxy]phenyl}ethyl)-4-hydroxy-5,6-dihydro-2H-pyran-2-one]"
3,0.003,"CCc1cc(CCC2(C3CCCC3)CC(O)=C(Cc3nc4nc(C)cc(C)n4n3)C(=O)O2)c(OC)cn1 (single isomer, unassigned) [A(38), 6-Cyclopentyl-3-[(5,7-dimethyl[1,2,4]triazolo[1,5-a]pyrimidin-2-yl)methyl]-6-[2-(2-ethyl-5-methoxypyridin-4-yl)ethyl]-4-hydroxy-5,6-dihydro-2H-pyran-2-one]"
4,0.006,"CCCS(=O)(=O)Nc1ccc(CCC2(C3CCCC3)CC(O)=C(Cc3nc4nc(C)cc(C)n4n3)C(=O)O2)cc1CC (centres unmarked) [A(109), N-[4-(2-{2-cyclopentyl-5-[(5,7-dimethyl[1,2,4]triazolo[1,5-a]pyrimidin-2-yl)methyl]-4-hydroxy-6-oxo-3,6-dihydro-2H-pyran-2-yl}ethyl)-2-ethylphenyl]propane-1-sulfonamide]"
5,0.005,"CCc1cc(CCC2(C3CCCC3)CC(O)=C(Cc3nc4nc(C)cc(C)n4n3)C(=O)O2)ccc1CC#N (single isomer, unassigned; enantiomer 2) [A(117), Enantiomer 2 of [4(2-{2-Cyclopentyl-5[(5,7-dimethyl[1,2,4]triazolo[1,5-a]pyrimidin-2-yl)methyl]-4-hydroxy-6-oxo-3,6dihydro-2H-pyran-2-yl}ethyl)-2-ethylphenyl]acetonitrile]"
6,0.005,"Cc1cc(C)n2nc(CC3=C(O)CC(CCc4ccc(C(C)(C)C#N)c(C(F)(F)F)c4)(C4CCCC4)OC3=O)nc2n1 (racemic) [Example B(28), 2-[4-(2-{2-cyclopentyl-5-[(5,7-dimethyl[1,2,4]triazolo[1,5-a]pyrimidin-2-yl)methyl]-4-hydroxy-6-oxo-3,6-dihydro-2H-pyran-2-yl}ethyl)-2-(trifluoromethyl)phenyl]-2-methylpropanenitrile]"
7,0.002,"CCc1cc(CCC2(C3CCCC3)CC(O)=C(Cc3nc4nc(C)cc(C)n4n3)C(=O)O2)c2c(c1O)CCO2 (single isomer, unassigned; enantiomer 1) [A(12), Enantiomer 1 of 6-Cyclopentyl-3-[(5,7-dimethyl[1,2,4]triazolo[1,5-a]pyrimidin-2-yl)methyl]-6-[2-(5-ethyl-4-hydroxy-2,3-dihydro-1-benzofuran-7-yl)ethyl]-4-hydroxy-5,6-dihydro-2H-pyran-2-one]"
8,0.004,"CCOc1cnc(CC)cc1CCC1(C2CCCC2)CC(O)=C(Cc2nc3ncc(C)cn3n2)C(=O)O1 (single isomer, unassigned) [A(56), 6-Cyclopentyl-6-[2-(5-ethoxy-2-ethylpyridin-4-yl)ethyl]-4-hydroxy-3-[(6-methyl[1,2,4]triazolo[1,5-a]pyrimidin-2-yl)methyl]-5,6-dihydro-2H-pyran-2-one]"
9,0.003,"CCCOc1cnc(CC)cc1CCC1(C2CCCC2)CC(O)=C(Cc2nc3nc(C)cc(C)n3n2)C(=O)O1 (single isomer, unassigned) [A(53), 6-Cyclopentyl-3-[(5,7-dimethyl[1,2,4]triazolo[1,5-a]pyrimidin-2-yl)methyl]-6-[2-(2-ethyl-5-propoxypyridin-4-yl)ethyl]-4-hydroxy-5,6-dihydro-2H-pyran-2-one]"
